The text below walks through data of patent US8916579B2, “5-fluoropyrimidinone derivatives” (Dow AgroSciences, LLC., priority 2009, dated 2014).

A word on the melting point: it is the temperature of the solid-liquid transition.

In series [1] the test system is Mycosphaerella graminicola; anamorph: Septoria tritici; Bayer code SEPTTR. Put plainly: Fungicidal activity: leaf blotch of wheat, greenhouse wheat plants (variety Yuma), percent disease control. The class given is in vivo. As to conditions: Zymoseptoria tritici. The procedure: Evaluation of Fungicidal Activity: Leaf Blotch of Wheat (Mycosphaerella graminicola; anamorph: Septoria tritici; Bayer code SEPTTR)
Wheat plants (variety Yuma) were grown from seed in a greenhouse in 50% mineral soil/50% soil-less Metro mix until the first leaf was fully emerged, with 7-10 seedlings per pot. These plants were inoculated with an aqueous spore suspension of Septoria tritici either prior to or after fungicide treatments. After inoculation the plants were kept in 100% relative humidity (one day in a dark dew chamber followed by two to three days in a lighted dew chamber) to permit spores to germinate and infect the leaf. The plants were then transferred to a greenhouse for disease to develop.
The effectiveness of the test compounds in controlling disease was determined by assessing the severity of disease on treated plants, then converting the severity to percent control based on the level of disease on untreated, inoculated plants. • In each case of Table II the rating scale is as follows: […]

Where [2] appears, read: 24 h, One-Day Protectant (1DP), 100 ppm, wheat plants, read-out: SEPTTR 100 PPM 1DP (% Disease Control rating).
The mark [3] stands for this setting: 72 h, Three-Day Curative (3DC), 100 ppm, wheat plants, read-out: SEPTTR 100 PPM 3DC (% Disease Control rating).

SMILES strings stand for the structures. Where two headings read alike, the source gives them in different places.

As to `CCn1cc(F)c(/N=C/N(C)C)nc1=O` [Compound 34, (E)-N′-(1-ethyl-5-fluoro-2-oxo-1,2-dihydropyrimidin-4-yl)-N,N-dimethylformimidamide], the melting point fell in the range of 157 to 160 °C. Moreover, the pest or weed control at 100 ppm in series [1] (setting [2]) lay in the range of 76 to 100%. In series [1] (setting [3]), the pest or weed control at 100 ppm is 76 to 100%.
`CSCn1cc(F)c(NC(=O)Nc2ccccc2Cl)nc1=O` [Compound 86] yielded a melting point of 181.8 to 183.5 °C. Moreover, the pest or weed control at 100 ppm in series [1] (setting [2]) was 26 to 50%. Moreover, the pest or weed control at 100 ppm in series [1] (setting [3]) is 26 to 50%.
In turn, `COCCOCn1cc(F)c(N)nc1=O` [Compound 16] had a melting point of 160 to 163 °C. Also, the pest or weed control at 100 ppm in series [1] (setting [2]) is 0 to 25%. The pest or weed control at 100 ppm in series [1] (setting [3]) is 0 to 25%.
The compound `C=Cn1cc(F)c(NCc2ccccc2F)nc1=O` [Compound 67] had a melting point of 168.6 to 169.1 °C. For the same compound, the pest or weed control at 100 ppm in series [1] (setting [2]) lay within 0 to 25%. In addition, in series [1] (setting [3]), the pest or weed control at 100 ppm lay in the range of 51 to 75%.
In the case of `Nc1nc(=O)n(CC2CCCO2)cc1F` (stereo not drawn) [Compound 76], the melting point is 179.2 to 181.1 °C. For the same compound, the pest or weed control at 100 ppm in series [1] (setting [2]) was 0 to 25%. For the same compound, in series [1] (setting [3]), the pest or weed control at 100 ppm lay within 51 to 75%.
With `CCCCCCCCOCn1cc(F)c(N)nc1=O` [Compound 18], the melting point was in the range of 166 to 170 °C. Also, in series [1] (setting [2]), the pest or weed control at 100 ppm fell in the range of 26 to 50%. Also, the pest or weed control at 100 ppm in series [1] (setting [3]) is 51 to 75%.
Compound `Nc1nc(=O)n(CCCCn2cncn2)cc1F` [Compound 27, 4-amino-5-fluoro-1-(4-[1,2,4]triazol-1-yl-butyl)-1H-pyrimidin-2-one] had a melting point of 197 to 200 °C. The pest or weed control at 100 ppm in series [1] (setting [2]) lay in the range of 0 to 25%. Further, in series [1] (setting [3]), the pest or weed control at 100 ppm was 0 to 25%.
Take `O=C(Oc1ccccc1)N(C(=O)Oc1ccccc1)c1nc(=O)n(CC2CC2)cc1F` [Compound 82]: the melting point fell in the range of 159 to 161 °C. The pest or weed control at 100 ppm in series [1] (24 h, read-out: SEPTTR 100 PPM 1DP (% Disease Control rating)) lay within 26 to 50%. In addition, in series [1] (72 h, read-out: SEPTTR 100 PPM 3DC (% Disease Control rating)), the pest or weed control at 100 ppm was in the range of 26 to 50%.
For `CCOC(=O)OC(C)n1cc(F)c(N)nc1=O` (stereo not drawn) [Compound 23], the melting point is 162 to 166 °C. Moreover, the pest or weed control at 100 ppm in series [1] (setting [2]) lay in the range of 76 to 100%. Also, in series [1] (setting [3]), the pest or weed control at 100 ppm lay in the range of 76 to 100%.
Compound `CC(C)Cn1cc(F)c(N)nc1=O` [Compound 77] came in with a melting point of 140 to 142.8 °C. In series [1] (setting [2]), the pest or weed control at 100 ppm lay in the range of 26 to 50%. Moreover, the pest or weed control at 100 ppm in series [1] (setting [3]) lay within 0 to 25%.
In the case of `COc1ccc(CCn2cc(F)c(N)nc2=O)cc1` [Compound 30], the melting point was in the range of 168 to 189 °C. Also, the pest or weed control at 100 ppm in series [1] (setting [2]) lay in the range of 0 to 25%. In series [1] (setting [3]), the pest or weed control at 100 ppm lay within 76 to 100%.
In turn, `N#Cc1cccc(-n2cc(F)c(N)nc2=O)c1` [Compound 46] displayed a melting point of 175 to 178 °C. The pest or weed control at 100 ppm in series [1] (setting [2]) was 0 to 25%. For the same compound, the pest or weed control at 100 ppm in series [1] (setting [3]) is 0 to 25%.
Consider `CSCn1cc(F)c(NC(=O)Nc2ccc(C)cc2)nc1=O` [Compound 93], for which the melting point was 188.8 to 190.2 °C. In series [1] (setting [2]), the pest or weed control at 100 ppm lay within 0 to 25%. For the same compound, the pest or weed control at 100 ppm in series [1] (setting [3]) lay within 51 to 75%.
In turn, `CC(C)Cn1cc(F)c(NC(=O)c2ccccc2F)nc1=O` [Compound 98] yielded a melting point of 161.3 to 163 °C. For the same compound, the pest or weed control at 100 ppm in series [1] (setting [2]) was 0 to 25%. In series [1] (setting [3]), the pest or weed control at 100 ppm was in the range of 0 to 25%.
`COc1ccc(-n2cc(F)c(N)nc2=O)cc1OC` [Compound 40] gave a melting point of 244.8 to 245.6 °C. For the same compound, the pest or weed control at 100 ppm in series [1] (setting [2]) fell in the range of 0 to 25%. In addition, in series [1] (setting [3]), the pest or weed control at 100 ppm lay within 0 to 25%.
In the case of `CN(C)CNc1nc(=O)n(CN(C)C)cc1F` [Compound 3], the melting point is 157 to 187 °C (dec.). Further, the pest or weed control at 100 ppm in series [1] (setting [2]) fell in the range of 76 to 100%. Also, the pest or weed control at 100 ppm in series [1] (setting [3]) was in the range of 76 to 100%.
Consider `CCCC(=O)OCn1cc(F)c(/N=C/N(C)C)nc1=O` [Compound 13], for which the melting point lay in the range of 109 to 111 °C. Also, the pest or weed control at 100 ppm in series [1] (setting [2]) was in the range of 76 to 100%. Moreover, the pest or weed control at 100 ppm in series [1] (setting [3]) lay within 76 to 100%.
